Patent US6861256B2, “Therapeutic and diagnostic tools for impaired glucose tolerance conditions” (The General Hospital Corporation, priority 1997, dated 2005)
Entries after “also recorded” stand apart in the source; their conditions may differ.

How the values were obtained:
[1] = system: C. elegans dauers; assay: Dauer recovery assay on drug plates; assay type: in vivo; settings: for dauer recovery: C. elegans dauers induced by mutation or pheromone, drug plates; for dauer recovery of daf-2 dauers: daf-2(e1370) mutant dauers, all concentrations
Description: Minimal media plates were used for the drug assays: 3.0 g NaCl, 20 g agarose (Sigma-Type II #A6877) and 970 ml of water. The autoclaved solution was cooled to 50-55° C. before 25 ml of 1M KPO4 (pH 6.0), 1.0 ml 1M CaCl2, 1.0 ml of 1M MgSO4, and 1 ml of 5 mg/ml cholesterol were added. In some assays, Escherichia coli (DH5α) bacteria arrested with streptomycin was added to each plate.
In some experiments, 100-200 eggs or synchronized L1s were put onto the drug plates. For all experiments described herein, about 10,000 L1s were placed in 10 ml of S Medium containing 1-2 ml of a 0.4% (w/v) solution of Escherichia coli DH5α bacteria in M9 solution (Wood (1988) (Cold Spring Harbor Laboratory Press, Cold Spring Harbor, N.Y.)) arrested with streptomycin, in a 25 ml flask on a rotating heated water bath at 25° C. For wild-type N2 dauers, 600 μl of the 0.4% bacterial solution and pheromone was also added to flask as described in Gottlieb and Ruvkun (1994) Genetics 137:107120. The pheromone preparation is a solution prepared as follows. Animals were grown in a large flask for several generations, and then spun down. The supernatant was boiled down to a brownish powder and then ethanol extracted. After 72 hours of liquid growth, animals were centrifuged and the supernatant removed. Animals were then resuspended in a 15 ml tube with a pre-heated 25° C. solution of 1% SDS and tubes were placed on a rocker at 25° C. for 30 minutes. Animals were centrifuged and the SDS removed. Animals were washed with either M9 or S medium (Wood (1988) (Cold Spring Harbor Laboratory Press, Cold Spring Harbor, N.Y.)) 4-6 times. After a final spin, 100-200 dauers were placed onto the drug plates without food. 24 and 48 hours later, plates were scored for the number of dauers and non-dauer adults.
For each strain tested, a control plate without any drug, with and without food was also tested. […] The assay was performed at 25° C., which means that the daf-c mutants are still under full dauer inducing conditions.

[2] = system: A. caninum L3; assay: Drug assay in A. caninum (resumption of feeding of infective L3); assay type: in vivo, Ancylostoma caninum; settings: for dauer recovery: A. caninum L3, agonist without serum and GSM
Description: Hookworm infective L3 animals were collected from 1-4 wk old coproculture by the Baermann technique, and decontaminated with 1% HCL in BU buffer (50 mM Na2PO4/22 mM KH2PO4/70 mM NaCl, pH 6.8) (Hawdon and Schad (1991) in Developmental Adaptations in Nematodes., ed. C. A. Toft, A. A. a. L. B. (Oxford University Press, Oxford), pp. 274-298; and Hawdon and Schad (1991) J. Helm. Soc. Wash. 58:140-142) for 30 minutes at 22° C. Approximately 250 L3 animals were incubated in individual wells of a 96-well tissue culture plate containing 0.1 ml RPMI1640 tissue culture medium, supplemented with 0.25 mM HEPES pH 7.2, 100 U/ml penicillin, 100 μg/ml streptomycin, 100 μg/ml gentamycin, and 2.5 μg/ml amphotericin B. The L3 animals were activated to resume development and feeding by including 10% (v/v) canine serum and 25 mM S-methyl-glutathione (GSM; Hawdon et al. (1995) Exper. Parasitol. 80:205-211). Non-activated L3 animals were incubated in RPMI alone (i.e., without the stimulus). Stock solutions of the drugs were made in RPMI, and included in the incubation at the indicated concentrations. […] The L3 animals were incubated at 37° C. 5% CO2 for 24 hours. The percentage of feeding L3 animals was determined by incubating the L3 animals with 2.5 mg/ml FITC-BSA for 2-3 hours, followed by counting the number of L3 animals that had ingested the labeled BSA by microscopic examination under epi-fluorescent illumination (Hawdon and Schad (1990) J. Parasit. 76:394-398). Each treatment was done in triplicate, and each experiment was repeated at least once.

[3] = system: C. elegans unc-86 mutants; assay: 5HT accumulation in the NSM neuron of unc-86 mutants; assay type: in vivo
[4] = system: C. elegans DAF-16 with the serine or threonine of the Akt/PKB consensus sites mutated to alanine
[5] = system: T1, C. elegans DAF-16
T1 sequence: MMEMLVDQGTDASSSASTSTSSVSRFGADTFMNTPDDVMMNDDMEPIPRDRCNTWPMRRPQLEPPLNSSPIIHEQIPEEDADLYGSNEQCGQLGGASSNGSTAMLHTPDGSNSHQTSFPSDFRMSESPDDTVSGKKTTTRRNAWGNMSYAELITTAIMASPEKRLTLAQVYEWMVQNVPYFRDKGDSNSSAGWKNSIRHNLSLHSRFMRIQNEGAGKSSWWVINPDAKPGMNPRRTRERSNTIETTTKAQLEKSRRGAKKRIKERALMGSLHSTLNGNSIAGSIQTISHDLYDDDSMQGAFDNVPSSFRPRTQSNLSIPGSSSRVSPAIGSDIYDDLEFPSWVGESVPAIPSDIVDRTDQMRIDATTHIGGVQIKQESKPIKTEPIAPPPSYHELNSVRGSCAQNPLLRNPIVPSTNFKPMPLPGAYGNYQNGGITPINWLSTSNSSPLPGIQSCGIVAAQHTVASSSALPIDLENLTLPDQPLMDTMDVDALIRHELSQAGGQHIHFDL

[6] = wild-type pheromone-induced dauers

O=C1CCCN1CC#CCN1CCCC1 [oxotremorine]
dauer recovery [1]: promoted dauer recovery; also recorded: promoted recovery of dauers induced by mutation as well as pheromone | Emax at 1000 µM ([1]; Caenorhabditis elegans, daf-7(e1372), daf-10(e1387) double mutant, 1 mM oxotremorine, read-out: maximum response, recovery): 13% | dauers that recover ([1]; daf-1(m40) dauers in oxotremorine): 30% | dauer recovery of daf-2 dauers [1]: fails to recover at all concentrations | dauers that recover ([1]; daf-4(m63) dauers in oxotremorine): 50% | concentration of maximum recovery ([1]; daf-7(e1372) dauers): 5 mM | dauers recovered ([1]; daf-7(e1372) dauers, 1 mM oxotremorine): 40% | concentration of maximum recovery [1, 6]: 1 mM | dauer recovery [2]: promotes dauer recovery | concentration of maximum recovery ([2]; A. caninum L3 dauers): 5 mM

CN1[C@@H]2CC[C@H]1C[C@@H](OC(=O)C(CO)c1ccccc1)C2 (some centres unmarked) [atropine]
inhibition of muscarinic agonist-induced dauer recovery ([1]; C. elegans, 1 mM oxotremorine, increasing atropine): completely inhibited; also recorded: all of the drug-induced dauer recovery was inhibited | recovery induced by oxotremorine in combination with atropine ([1]; daf-7(e1372) dauers, 1 mM oxotremorine + 1 mM atropine): 5% | oxotremorine response in presence of atropine ([1]; daf-7(e1372) dauers, 1 mM oxotremorine + 5 mM atropine): completely abolished | dauer larvae recovered ([1]; pheromone-induced dauers, bacterial food plus atropine, 25° C.): 21% | recovery with arecoline plus atropine ([2]; A. caninum L3, 0.5 mM arecoline and 1.0 mM atropine (increasing atropine in FIG. 44C)): completely inhibited; also recorded: failed to recover | recovery / resumption of feeding ([2]; A. caninum L3, 10% serum and 25 mM GSM, atropine 0.5 mM): completely inhibited recovery | inhibition at 500 µM ([2]; Ancylostoma caninum, read-out: inhibition of recovery): 99.5%

c1ccc([C@H]2CN3CCSC3=N2)cc1 [Levamisole, levamisole]
dauer recovery [1]: no effect on dauer recovery

C[N+](C)(C)CCOC(N)=O [carbachol]
dauer recovery [1]: promoted recovery of dauers induced by mutation as well as pheromone

C[C@@H]1O[C@H](C[N+](C)(C)C)C[C@H]1O [muscarine]
dauer recovery [1]: promoted dauer recovery

CNCCC(Oc1ccc(C(F)(F)F)cc1)c1ccccc1 (centres unmarked) [Prozac]
5HT accumulation in the NSM [3]: causes 5HT accumulation in the NSM to disappear

human AKT
in vitro phosphorylation [4]: in vitro phosphorylation of DAF-16 (or fragments of DAF-16) is abolished | in vitro phosphorylation [5]: human AKT will phosphorylate C. elegans DAF-16

COC(=O)C1=CCCN(C)C1 [arecoline]
dauer recovery [1]: promoted dauer recovery; also recorded: promoted recovery of dauers induced by mutation as well as pheromone | maximal response lower than for the other agonists ([1]; C. elegans, FIG. 44B): 10 fold lower | dauer recovery of daf-2 dauers [1]: fails to recover at all concentrations | dauer recovery [2]: promotes dauer recovery | maximal response lower than for the other agonists ([2]; A. caninum, FIG. 44B): 10 fold lower

CC[C@@H]1C(=O)OC[C@@H]1Cc1cncn1C [pilocarpine]
dauer recovery [1]: promoted dauer recovery; also recorded: promoted recovery of dauers induced by mutation as well as pheromone | concentration of maximum recovery ([1]; daf-7(e1372) dauers): 5 mM | concentration of maximum recovery [1, 6]: 1 mM | dauer recovery [2]: failed to recover
